Source: PubChem BioAssay (NCI)
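Test compounds were applied to cells in 96-well plates for 48 hours at 5 doses. Definition used: TGI = concentration required for complete inhibition of growth.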

Key:
Test in all cases: NCI tumour cell line growth inhibition, 48 h
SNB-75 CNS = tested on: SNB-75 CNS
OVCAR-8 ovarian = tested on: OVCAR-8 ovarian
NCI/ADR-RES ovarian = tested on: NCI/ADR-RES ovarian
RPMI-8226 leukemia = tested on: RPMI-8226 leukemia
HOP-92 NSCLC = tested on: HOP-92 NSCLC
M14 melanoma = tested on: M14 melanoma
MDA-MB-435 = tested on: MDA-MB-435
NCI-H460 lung = tested on: NCI-H460 lung
HCT-15 colon = tested on: HCT-15 colon
MALME-3M melanoma = tested on: MALME-3M melanoma
HOP-62 NSCLC = tested on: HOP-62 NSCLC
IGROV1 ovarian = tested on: IGROV1 ovarian
NCI-H23 lung = tested on: NCI-H23 lung
UACC-257 melanoma = tested on: UACC-257 melanoma
SK-MEL-5 melanoma = tested on: SK-MEL-5 melanoma
DU-145 prostate = tested on: DU-145 prostate
ACHN renal = tested on: ACHN renal
CCRF-CEM leukemia = tested on: CCRF-CEM leukemia
CAKI-1 renal = tested on: CAKI-1 renal
SF-268 CNS = tested on: SF-268 CNS
HCC-2998 colon = tested on: HCC-2998 colon
SR leukemia = tested on: SR leukemia
TK-10 renal = tested on: TK-10 renal
RXF 393 renal = tested on: RXF 393 renal
OVCAR-4 ovarian = tested on: OVCAR-4 ovarian
KM12 colon = tested on: KM12 colon
NCI-H522 lung = tested on: NCI-H522 lung
HL-60(TB) leukemia = tested on: HL-60(TB) leukemia
HCT-116 colon = tested on: HCT-116 colon
SW-620 colon = tested on: SW-620 colon
OVCAR-3 ovarian = tested on: OVCAR-3 ovarian
K-562 leukemia = tested on: K-562 leukemia
HT29 colon = tested on: HT29 colon
MDA-MB-231 breast = tested on: MDA-MB-231 breast
SF-539 CNS = tested on: SF-539 CNS
SK-OV-3 ovarian = tested on: SK-OV-3 ovarian
SK-MEL-28 melanoma = tested on: SK-MEL-28 melanoma
COLO 205 colon = tested on: COLO 205 colon
SF-295 CNS = tested on: SF-295 CNS
OVCAR-5 ovarian = tested on: OVCAR-5 ovarian
EKVX NSCLC = tested on: EKVX NSCLC
LOX IMVI melanoma = tested on: LOX IMVI melanoma
SN12C renal = tested on: SN12C renal
UACC-62 melanoma = tested on: UACC-62 melanoma
786-0 renal = tested on: 786-0 renal
T-47D breast = tested on: T-47D breast
MCF7 breast = tested on: MCF7 breast
NCI-H226 lung = tested on: NCI-H226 lung
SK-MEL-2 melanoma = tested on: SK-MEL-2 melanoma
A549 NSCLC = tested on: A549 NSCLC
SNB-19 CNS = tested on: SNB-19 CNS
UO-31 renal = tested on: UO-31 renal
A498 renal = tested on: A498 renal
U251 CNS = tested on: U251 CNS
HS 578T breast = tested on: HS 578T breast
PC-3 prostate = tested on: PC-3 prostate
MDA-N = tested on: MDA-N
MOLT-4 leukemia = tested on: MOLT-4 leukemia
BT-549 breast = tested on: BT-549 breast

`CC(=O)c1ccc2c(c1)CC1(C2)Cc2cc3c(cc2C1)C(=O)CC3` (stereo not drawn) gave a TGI (SNB-75 CNS) of over 100 µM, a TGI (OVCAR-8 ovarian) of 19.5 µM and a TGI (NCI/ADR-RES ovarian) of 17.2 µM. For the same compound, the TGI (RPMI-8226 leukemia) was 3.61 µM, the TGI (HOP-92 NSCLC) was 32.8 µM and the TGI (M14 melanoma) was 17.6 µM. For the same compound, the TGI (MDA-MB-435) was 0.636 µM, the TGI (NCI-H460 lung) was 12.2 µM and the TGI (HCT-15 colon) was 13.2 µM. The TGI (MALME-3M melanoma) was 25.7 µM, the TGI (HOP-62 NSCLC) was 16.1 µM and the TGI (IGROV1 ovarian) was 39.2 µM. The TGI (NCI-H23 lung) was 14.7 µM, the TGI (UACC-257 melanoma) was 29.1 µM and the TGI (SK-MEL-5 melanoma) was 11.9 µM. It also gave a TGI (DU-145 prostate) of 25.8 µM, a TGI (ACHN renal) of 35.2 µM and a TGI (CCRF-CEM leukemia) of 3.87 µM. For the same compound, the TGI (CAKI-1 renal) was 33.5 µM, the TGI (SF-268 CNS) was over 100 µM and the TGI (HCC-2998 colon) was 7.48 µM. It also gave a TGI (SR leukemia) of 0.963 µM, a TGI (TK-10 renal) of over 83 µM and a TGI (RXF 393 renal) of 17.7 µM. The TGI (OVCAR-4 ovarian) was over 73.6 µM, the TGI (KM12 colon) was 7.83 µM and the TGI (NCI-H522 lung) was 14.2 µM. It also gave a TGI (HL-60(TB) leukemia) of 2.1 µM, a TGI (HCT-116 colon) of 8.8 µM and a TGI (SW-620 colon) of over 100 µM. For the same compound, the TGI (OVCAR-3 ovarian) was 5.96 µM, the TGI (K-562 leukemia) was 2.32 µM and the TGI (HT29 colon) was 6.32 µM. For the same compound, the TGI (MDA-MB-231 breast) was 11.2 µM, the TGI (SF-539 CNS) was 3.39 µM and the TGI (SK-OV-3 ovarian) was over 66.1 µM. The TGI (SK-MEL-28 melanoma) was 30.4 µM, the TGI (COLO 205 colon) was 1.66 µM and the TGI (SF-295 CNS) was 13 µM. For the same compound, the TGI (OVCAR-5 ovarian) was over 100 µM, the TGI (EKVX NSCLC) was over 89.6 µM and the TGI (LOX IMVI melanoma) was 28.8 µM. It also gave a TGI (SN12C renal) of over 100 µM, a TGI (UACC-62 melanoma) of 28.7 µM and a TGI (786-0 renal) of 20.9 µM. The TGI (T-47D breast) was 69.3 µM, the TGI (MCF7 breast) was 26.4 µM and the TGI (NCI-H226 lung) was 2.33 µM. It also gave a TGI (SK-MEL-2 melanoma) of 5.75 µM, a TGI (A549 NSCLC) of 29.2 µM and a TGI (SNB-19 CNS) of over 100 µM. For the same compound, the TGI (UO-31 renal) was 66.9 µM, the TGI (A498 renal) was 4.22 µM and the TGI (U251 CNS) was 34 µM. For the same compound, the TGI (HS 578T breast) was over 69.2 µM, the TGI (PC-3 prostate) was 17.8 µM and the TGI (MDA-N) was 0.492 µM.
`CC(C)=NN/C(=N\S(=O)(=O)c1cc(Cl)c(Oc2ccc([N+](=O)[O-])cc2Cl)c(Cl)c1)Nc1ccc(Cl)cc1` gave a TGI (OVCAR-8 ovarian) of over 100 µM, a TGI (NCI/ADR-RES ovarian) of over 100 µM and a TGI (RPMI-8226 leukemia) of over 100 µM. For the same compound, the TGI (HOP-92 NSCLC) was over 100 µM, the TGI (M14 melanoma) was over 100 µM and the TGI (MDA-MB-435) was over 100 µM. It also gave a TGI (NCI-H460 lung) of over 100 µM, a TGI (HCT-15 colon) of over 100 µM and a TGI (MALME-3M melanoma) of over 100 µM. The TGI (HOP-62 NSCLC) was over 100 µM, the TGI (IGROV1 ovarian) was over 100 µM and the TGI (NCI-H23 lung) was over 100 µM. The TGI (UACC-257 melanoma) was over 100 µM, the TGI (SK-MEL-5 melanoma) was over 100 µM and the TGI (DU-145 prostate) was over 100 µM. It also gave a TGI (CCRF-CEM leukemia) of over 100 µM, a TGI (MOLT-4 leukemia) of over 100 µM and a TGI (CAKI-1 renal) of over 100 µM. For the same compound, the TGI (SF-268 CNS) was over 100 µM, the TGI (TK-10 renal) was over 100 µM and the TGI (OVCAR-4 ovarian) was over 100 µM. It also gave a TGI (KM12 colon) of over 100 µM, a TGI (NCI-H522 lung) of over 100 µM and a TGI (HL-60(TB) leukemia) of over 100 µM. The TGI (HCT-116 colon) was over 100 µM, the TGI (SW-620 colon) was over 100 µM and the TGI (OVCAR-3 ovarian) was over 100 µM. It also gave a TGI (K-562 leukemia) of over 100 µM, a TGI (HT29 colon) of over 100 µM and a TGI (MDA-MB-231 breast) of over 100 µM. The TGI (SK-MEL-28 melanoma) was over 100 µM, the TGI (COLO 205 colon) was over 100 µM and the TGI (BT-549 breast) was over 100 µM. The TGI (SF-295 CNS) was over 100 µM, the TGI (OVCAR-5 ovarian) was over 100 µM and the TGI (EKVX NSCLC) was over 100 µM. The TGI (LOX IMVI melanoma) was over 100 µM, the TGI (SN12C renal) was over 100 µM and the TGI (UACC-62 melanoma) was over 100 µM. For the same compound, the TGI (786-0 renal) was over 100 µM, the TGI (T-47D breast) was over 100 µM and the TGI (MCF7 breast) was over 100 µM. The TGI (NCI-H226 lung) was over 100 µM, the TGI (SK-MEL-2 melanoma) was over 100 µM and the TGI (A549 NSCLC) was over 100 µM. For the same compound, the TGI (SNB-19 CNS) was over 100 µM, the TGI (UO-31 renal) was over 100 µM and the TGI (U251 CNS) was over 100 µM. For the same compound, the TGI (HS 578T breast) was over 100 µM, the TGI (PC-3 prostate) was over 100 µM and the TGI (MDA-N) was over 100 µM.
